Assay results reported in patent US6737383B1, “Herbicidal oxadiazolidines” (priority 1999, dated 2004).

How the values were obtained:
[1] = tested on: soybean; test: Test B pre/postemergence soybean; format: in vivo, Glycine max
Procedure, shortened: (§1)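 Response is a visual 0-to-10 score relative to untreated plants, where 0 means no effect and 10 means complete control, taken twelve to sixteen days after application. Treatments went onto soil at planting and onto foliage of 1- to 4-leaf plants, using a surfactant-containing non-phytotoxic solvent.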

[2] = tested on: bamyardgrass; test: Test B flood test barnyardgrass; format: in vivo, Echinochloa crus-galli
Procedure, shortened: (§2)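 Flood test on plants grown to the 2-leaf stage; treated plants kept in greenhouse twelve to sixteen days, then visually rated against controls on a 0 (no effect) to 10 (complete control) scale.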

[3] = tested on: rice; test: Test B flood test rice; format: in vivo, Oryza sativa
Procedure, shortened: as §2

[4] = tested on: sugar beet; test: Test B pre/postemergence sugar beet; format: in vivo, Beta vulgaris
Procedure, shortened: as §1

[5] = tested on: surinam grass; test: Test B pre/postemergence surinam grass; format: in vivo, Brachiaria decumbens
Procedure, shortened: as §1

[6] = tested on: velvetleaf; test: Test B pre/postemergence velvetleaf; format: in vivo, Abutilon theophrasti
Procedure, shortened: as §1

[7] = tested on: purple nutsedge; test: Test B pre/postemergence purple nutsedge; format: in vivo, Cyperus rotundus
Procedure, shortened: as §1

[8] = tested on: smallflower flatsedge; test: Test B flood test smallflower flatsedge; format: in vivo, Cyperus difformis
Procedure, shortened: as §2

[9] = tested on: bedstraw; test: Test B pre/postemergence bedstraw; format: in vivo, Galium aparine
Procedure, shortened: as §1

[10] = tested on: corn; test: Test B pre/postemergence corn; format: in vivo, Zea mays
Procedure, shortened: as §1

[11] = tested on: rape; test: Test B pre/postemergence rape; format: in vivo, Brassica napus
Procedure, shortened: as §1

[12] = tested on: blackgrass; test: Test B pre/postemergence blackgrass; format: in vivo, Alopecurus myosuroides
Procedure, shortened: as §1

[13] = tested on: morningglory; test: Test B pre/postemergence morningglory; format: in vivo, Ipomoea hederacea
Procedure, shortened: as §1

[14] = tested on: cocklebur; test: Test B pre/postemergence cocklebur; format: in vivo, Xanthium strumarium
Procedure, shortened: as §1

[15] = tested on: wild oat; test: Test B pre/postemergence wild oat; format: in vivo, Avena fatua
Procedure, shortened: as §1

[16] = tested on: pigweed; test: Test B pre/postemergence pigweed; format: in vivo, Amaranthus retroflexus
Procedure, shortened: as §1

[17] = Preemergence, Rate 62 g/ha, scale of 0 to 10 where 0 is no effect and 10 is complete control
[18] = Preemergence, Rate 250 g/ha, scale of 0 to 10 where 0 is no effect and 10 is complete control
[19] = Preemergence, Rate 500 g/ha, scale of 0 to 10 where 0 is no effect and 10 is complete control
[20] = Rate 62 g/ha, Postemergence, scale of 0 to 10 where 0 is no effect and 10 is complete control
[21] = Rate 125 g/ha, Preemergence, scale of 0 to 10 where 0 is no effect and 10 is complete control
[22] = Rate 500 g/ha, Postemergence, scale 0 to 10, 0 no effect, 10 complete control
[23] = Rate 62 g/ha, headed Pre-emergence (flood test species), scale 0 to 10 (0 no effect, 10 complete control)
[24] = Rate 125 g/ha, Pre-emergence, flood test species, scale 0 to 10 where 0 is no effect and 10 is complete control
[25] = Rate 250 g/ha, Pre-emergence, flood-test species, scale 0 to 10, 0 is no effect, 10 is complete control
[26] = Rate 500 g/ha, Pre-emergence, flood test species, scale 0 to 10 (0 no effect, 10 complete control)
[27] = Rate 125 g/ha, Postemergence, scale 0 to 10

CC(C)N(C(=O)n1oc(=O)n(C2CC2)c1=O)c1ccccc1 [Compound 243]
Soybean plant response rating [1, 17]: 0
Soybean plant response rating [1, 18]: 8
Plant response rating, Soybean [1, 19]: 9
Soybean plant response rating [1, 20]: 3
Soybean plant response rating [1, 21]: 0
Soybean plant response rating [1, 22]: 8
Barnyardgrass plant response rating [2, 23]: 0
Barnyardgrass plant response rating [2, 24]: 0
Barnyardgrass plant response rating [2, 25]: 0
Barnyardgrass plant response rating [2, 26]: 0
Rice plant response rating [3, 23]: 0
Rice plant response rating [3, 24]: 0
Rice plant response rating [3, 25]: 0
Rice plant response rating [3, 26]: 0
Sugarbeets plant response rating [4, 17]: 2
Sugarbeets plant response rating [4, 18]: 7
Plant response rating, Sugarbeets [4, 19]: 10
Sugarbeets plant response rating [4, 20]: 0
Sugarbeets plant response rating [4, 21]: 3
Sugarbeets plant response rating [4, 22]: 5
B. signalgrass plant response rating [5, 17]: 4
B. signalgrass plant response rating [5, 18]: 7
Plant response rating, B. signalgrass [5, 19]: 10
B. signalgrass plant response rating [5, 20]: 0
B. signalgrass plant response rating ([5]; Rate 125 g/ha, Postemergence, scale 0 (no effect) to 10 (complete control)): 4
B. signalgrass plant response rating [5, 21]: 5
Plant response rating (0 to 10; 0 is no effect, 10 is complete control), B. signalgrass ([5]; Rate 250 g/ha, Postemergence): 9
B. signalgrass plant response rating [5, 22]: 9
Velvetleaf plant response rating [6, 17]: 4
Velvetleaf plant response rating [6, 18]: 10
Plant response rating, Velvetleaf [6, 19]: 10
Velvetleaf plant response rating [6, 20]: 0
Velvetleaf plant response rating [6, 21]: 6
Velvetleaf plant response rating [6, 22]: 7
Nutsedge plant response rating [7, 17]: 0
Nutsedge plant response rating [7, 18]: 0
Nutsedge plant response rating [7, 20]: 0
Nutsedge plant response rating [7, 21]: 0
Nutsedge plant response rating [7, 22]: 7
S. Flatsedge plant response rating [8, 23]: 0
S. Flatsedge plant response rating [8, 24]: 0
S. Flatsedge plant response rating [8, 25]: 0
S. Flatsedge plant response rating [8, 26]: 0
Bedstraw plant response rating [9, 17]: 0
Bedstraw plant response rating [9, 18]: 5
Plant response rating, Bedstraw [9, 19]: 9
Bedstraw plant response rating [9, 20]: 0
Bedstraw plant response rating [9, 27]: 4
Bedstraw plant response rating [9, 21]: 0
Plant response rating (0 to 10; 0 is no effect, 10 is complete control), Bedstraw ([9]; Rate 250 g/ha, Postemergence): 5
Bedstraw plant response rating [9, 22]: 5
Corn plant response rating [10, 17]: 2
Corn plant response rating [10, 18]: 6
Plant response rating, Corn [10, 19]: 9
Corn plant response rating [10, 20]: 0
Corn plant response rating [10, 27]: 2
Corn plant response rating [10, 21]: 3
Plant response rating (0 to 10; 0 is no effect, 10 is complete control), Corn ([10]; Rate 250 g/ha, Postemergence): 5
Corn plant response rating [10, 22]: 7
Rape plant response rating [11, 17]: 0
Rape plant response rating [11, 18]: 9
Plant response rating, Rape [11, 19]: 10
Rape plant response rating [11, 20]: 0
Rape plant response rating [11, 21]: 5
Plant response rating (0 to 10; 0 is no effect, 10 is complete control), Rape ([11]; Rate 250 g/ha, Postemergence): 2
Rape plant response rating [11, 22]: 3
Blackgrass plant response rating [12, 17]: 8
Blackgrass plant response rating [12, 18]: 10
Plant response rating, Blackgrass [12, 19]: 10
Blackgrass plant response rating [12, 20]: 7
Blackgrass plant response rating [12, 27]: 8
Blackgrass plant response rating [12, 21]: 10
Plant response rating (0 to 10; 0 is no effect, 10 is complete control), Blackgrass ([12]; Rate 250 g/ha, Postemergence): 9
Blackgrass plant response rating [12, 22]: 9
Morningglory plant response rating [13, 17]: 2
Morningglory plant response rating [13, 18]: 8
Plant response rating, Morningglory [13, 19]: 10
Morningglory plant response rating [13, 20]: 5
Morningglory plant response rating [13, 21]: 3
Plant response rating (0 to 10; 0 is no effect, 10 is complete control), Morningglory ([13]; Rate 250 g/ha, Postemergence): 7
Morningglory plant response rating [13, 22]: 8
Cocklebur plant response rating [14, 17]: 0
Cocklebur plant response rating [14, 18]: 0
Plant response rating, Cocklebur [14, 19]: 5
Cocklebur plant response rating [14, 20]: 0
Cocklebur plant response rating [14, 27]: 2
Cocklebur plant response rating [14, 21]: 0
Plant response rating (0 to 10; 0 is no effect, 10 is complete control), Cocklebur ([14]; Rate 250 g/ha, Postemergence): 4
Cocklebur plant response rating [14, 22]: 0
Wild oats plant response rating [15, 17]: 3
Wild oats plant response rating [15, 18]: 9
Plant response rating, Wild oats [15, 19]: 9
Wild oats plant response rating [15, 20]: 0
Wild oats plant response rating [15, 21]: 6
Wild oats plant response rating [15, 22]: 4
Redroot pigweed plant response rating [16, 17]: 6
Redroot pigweed plant response rating [16, 18]: 10
Plant response rating, Redroot pigweed [16, 19]: 10
Redroot pigweed plant response rating [16, 20]: 2
Redroot pigweed plant response rating [16, 21]: 9
Plant response rating (0 to 10; 0 is no effect, 10 is complete control), Redroot pigweed ([16]; Rate 250 g/ha, Postemergence): 7
Redroot pigweed plant response rating [16, 22]: 7
